Assay results reported in US20260200921A1, “SUBSTITUTED AMINOPYRIDINE COMPOUNDS AS AKT INHIBITORS” (Atavistik Bio, Inc., priority 2023, published 2026).

How the values were obtained:
[1] = biological target: T1, AKT1 E17K (Homo sapiens, UniProt P31749, E17K); assay: AKT1 E17K kinase assay (TR-FRET, Lance); assay type: biochemical; settings: full-length human recombinant AKT1 E17K activated by PDPK1; Ulight-CREBtide substrate; either 50 μM ATP or 2 mM ATP
T1 construct: Purified human recombinant kinase full-length AKT1 E17K was expressed in insect cells; made in house; host or cells: insect cells
T1 sequence (P31749 whole entry E17K): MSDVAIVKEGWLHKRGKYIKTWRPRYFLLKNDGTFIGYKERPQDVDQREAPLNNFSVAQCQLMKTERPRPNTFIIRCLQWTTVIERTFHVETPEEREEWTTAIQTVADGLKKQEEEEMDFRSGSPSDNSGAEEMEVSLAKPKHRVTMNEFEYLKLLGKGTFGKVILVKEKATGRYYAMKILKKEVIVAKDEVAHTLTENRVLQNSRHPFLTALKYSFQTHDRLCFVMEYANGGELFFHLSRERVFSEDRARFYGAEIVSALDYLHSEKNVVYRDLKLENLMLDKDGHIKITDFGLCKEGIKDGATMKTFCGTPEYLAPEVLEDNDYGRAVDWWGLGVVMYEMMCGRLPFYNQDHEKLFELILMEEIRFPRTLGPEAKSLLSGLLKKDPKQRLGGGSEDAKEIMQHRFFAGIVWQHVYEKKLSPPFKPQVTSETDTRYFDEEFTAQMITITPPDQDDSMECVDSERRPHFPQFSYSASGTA
Experimental: AKT1 E17K kinase assay: Inhibitory effects of compounds on AKT1 E17K were undertaken in a 10-pt dose response kinase activity assay measuring phospho-peptide product formation based on TR-FRET signal as described in the following paragraph.
(§1) Purified human recombinant kinase full-length AKT1 E17K was expressed in insect cells and activated in vitro by PDPK1. Ulight™-CREBtide (PerkinElmer, catalog number TRF0107) was used as the peptide substrate. The reaction buffer consisted of 50 mM HEPES pH 7.5, 10 mM MgCl2, 0.01% Triton X-100, 0.01% BSA, 2 mM DTT, 0.6 nM AKT1 E17K, 50 nM Ulight™-CREBtide and either 50 μM ATP or 2 mM ATP. The compound solution was prepared as 10 mM DMSO stock. For the assay, a 1:3 serial dilution 10-pt dose response of test compounds, in duplicate, for each concentration were dispensed into a 384-well plate (Corning, catalog number 4513). Final DMSO concentration in the assay was 1%. The enzyme mixture (5 μL, 1.2 nM) were added and the mixture was incubated for 15 min at RT prior to the start of the kinase reaction by the addition of 5 μL substrate mixture (100 nM Ulight™-CREBtide). The reaction was stopped after 60 min of incubation at RT by the addition of 10 μL of Detection Mix (PerkinElmer, #CR97-100) consisting of Europium-anti-phospho-CREB (Ser133) (Perkin Elmer, catalog numberTRF0200). Incubation with the detection mix for a further 60 min allowed binding of antibody to the phospho-Ulight™ CREBtide. The fluorescence emissions at 620 nm and 665 nm after excitation at 350 nm was measured using Envision reader. The ratio of the emissions at 665 nm and at 620 nm provided the measure for the amount of phosphorylated CREBtide product of AKT1 E17K kinase activity. To determine the IC50 values, the data was normalized (enzyme reaction without inhibitor=0% inhibition, all other assay components but no enzyme=100% inhibition) and IC50 values were calculated by a 4-parameter fit using an in-house developed protocol.

[2] = biological target: T2, wildtype AKT1 (Homo sapiens, UniProt P31749); assay: AKT1 kinase assay, wildtype (TR-FRET, Lance); assay type: biochemical; settings: full-length human recombinant wildtype AKT1 activated by PDPK1; Ulight-CREBtide substrate; either 50 μM ATP or 2 mM ATP
T2 construct: Purified human recombinant kinase full-length wildtype AKT1 was expressed in insect cells; made in house; host or cells: insect cells
T2 sequence (P31749 whole entry): as the sequence (P31749 whole entry E17K) above, with K17E counted along it
Experimental: AKT1 kinase assay: Inhibitory effects of compounds on wildtype AKT1 were undertaken in a 10-pt dose response kinase activity assay measuring phospho-peptide product formation based on TR-FRET signal as described in the following paragraph.
as §1, with “full-length wildtype” for “full-length”, “AKT1” for “AKT1 E17K”, “nM AKT1,” for “nM AKT1 E17K,”, “Mix (PerkinElmer.” for “Mix (PerkinElmer,”

| IC50 [1] | IC50 [2] | Structure (SMILES) |
| --- | --- | --- |
| ≥ 500 nM | < 500 nM | Nc1ncccc1-c1nc2ccc(-c3ccccc3)nc2n1-c1ccc(C2CCN(C[C@H]3CC[C@H](c4nsc(=O)[nH]4)CC3)CC2)cc1 [Compound I-45, 3-((1r,4r)-4-((4-(4-(2-(2-aminopyridin-3-yl)-5-phenyl-3H-imidazo[4,5-b]pyridin-3-yl)phenyl)piperidin-1-yl)methyl)cyclohexyl)-1,2,4-thiadiazol-5(4H)-one] |
| ≥ 500 nM | < 500 nM | Nc1ncccc1-c1nc2ccc(-c3ccccc3)nc2n1-c1ccc(C2CCN(C[C@H]3CC[C@@H](c4nsc(=O)[nH]4)CC3)CC2)cc1 [Compound I-46, 3-((1s,4s)-4-((4-(4-(2-(2-aminopyridin-3-yl)-5-phenyl-3H-imidazo[4,5-b]pyridin-3-yl)phenyl)piperidin-1-yl)methyl)cyclohexyl)-1,2,4-thiadiazol-5(4H)-one] |
| ≥ 500 nM | < 500 nM | CN(Cc1ccc(-n2c(-c3cccnc3N)nc3ccc(-c4ccccc4)nc32)cc1)[C@H]1CC[C@H](c2nsc(=O)[nH]2)CC1 [Compound I-47, 3-((1r,4r)-4-((4-(2-(2-aminopyridin-3-yl)-5-phenyl-3H-imidazo[4,5-b]pyridin-3-yl)benzyl)(methyl)amino)cyclohexyl)-1,2,4-thiadiazol-5(4H)-one] |
| 50 to 200 nM | < 500 nM | CN(Cc1ccc(-n2c(-c3cccnc3N)nc3ccc(-c4ccccc4)nc32)cc1)[C@H]1CC[C@@H](c2nsc(=O)[nH]2)CC1 [Compound I-48, 3-((1s,4s)-4-((4-(2-(2-aminopyridin-3-yl)-5-phenyl-3H-imidazo[4,5-b]pyridin-3-yl)benzyl)(methyl)amino)cyclohexyl)-1,2,4-thiadiazol-5(4H)-one] |
